Results taken from patent publication US20250340552A1, “COMPOUNDS, COMPOSITIONS AND METHODS OF TREATING DISORDERS” (HOTSPOT THERAPEUTICS, INC., priority 2022, published 2025).
Where two headings read alike, the source gives them in different places.

Target: T1, Cbl-B (Homo sapiens, UniProt Q13191)
T1 construct: MSD-Based Assay for Degradation of Cbl-B in THP-1 Cells; endogenous in cells; host or cells: THP-1 (title) / Jurkat (protocol text)
Assay: MSD-based assay for degradation of Cbl-B in THP-1 cells
Type: cell-based
Summary of the method: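 THP-1 cells were treated with compound for 24 h at 37 °C. Cbl-B in lysates was quantified by MSD sandwich immunoassay, with anti-Cbl-B capture antibody at 1 ug/mL and SULFO-TAG anti-rabbit detection. Maximal degradation (Dmax) was binned as A >70%, B 50–70%, C 30–50%, D <30%.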

[1] = Cbl-B degradation, Jurkat cells seeded (heading: THP-1 cells), 24 hours incubation, MSD readout
[2] = Cbl-B degradation, Jurkat cells seeded (heading: THP-1 cells), 24 hours incubation, MSD readout, read-out: Dmax

T1 sequence (Q13191 whole entry): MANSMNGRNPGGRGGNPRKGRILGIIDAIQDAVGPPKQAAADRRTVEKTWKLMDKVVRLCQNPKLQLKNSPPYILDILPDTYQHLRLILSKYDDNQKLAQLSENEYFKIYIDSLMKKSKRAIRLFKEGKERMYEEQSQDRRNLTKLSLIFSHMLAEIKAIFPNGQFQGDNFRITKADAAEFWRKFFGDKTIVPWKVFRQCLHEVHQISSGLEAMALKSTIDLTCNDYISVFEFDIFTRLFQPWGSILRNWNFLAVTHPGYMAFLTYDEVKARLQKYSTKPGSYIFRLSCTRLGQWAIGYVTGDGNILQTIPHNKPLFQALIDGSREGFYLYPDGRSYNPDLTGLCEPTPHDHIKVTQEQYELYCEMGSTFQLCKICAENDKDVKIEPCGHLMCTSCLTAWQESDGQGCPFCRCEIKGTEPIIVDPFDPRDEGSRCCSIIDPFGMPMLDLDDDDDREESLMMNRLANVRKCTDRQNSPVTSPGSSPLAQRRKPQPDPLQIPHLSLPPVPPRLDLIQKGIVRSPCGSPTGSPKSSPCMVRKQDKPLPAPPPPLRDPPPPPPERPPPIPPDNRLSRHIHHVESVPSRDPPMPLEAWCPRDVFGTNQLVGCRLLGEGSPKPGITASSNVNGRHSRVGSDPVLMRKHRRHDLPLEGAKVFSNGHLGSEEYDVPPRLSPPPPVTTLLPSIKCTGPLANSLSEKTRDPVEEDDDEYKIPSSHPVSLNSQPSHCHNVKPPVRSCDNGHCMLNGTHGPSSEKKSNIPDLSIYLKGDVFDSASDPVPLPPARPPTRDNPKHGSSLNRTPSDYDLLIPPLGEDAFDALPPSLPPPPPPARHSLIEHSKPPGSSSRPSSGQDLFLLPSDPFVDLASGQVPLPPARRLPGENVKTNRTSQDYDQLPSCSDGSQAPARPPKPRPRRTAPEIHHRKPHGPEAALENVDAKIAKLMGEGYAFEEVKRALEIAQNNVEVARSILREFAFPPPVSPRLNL

| DC50 [1] [nM] | Dmax [2] [%] | SMILES | Dmax (THP-1) [%] |
| --- | --- | --- | --- |
| 300 to 1000 | 30 to 50 | Cn1cnnc1CC1(c2cccc(-n3cc4c(C(F)(F)F)cc(CN5CCC(OCCN6CCC(CN7CCCN(c8ccc9c(c8)CN(C8CCC(=O)NC8=O)C9=O)CC7)CC6)CC5)cn4c3=O)c2)COC1 (stereo not drawn) [Compound 25] |  |
| > 10000 | < 30 | Cn1cnnc1[C@@H](c1cccc(-n2cc3c(C(F)(F)F)cc(CN4CCC(COCc5ccc(CN6CCN(c7cccc8c7C(=O)N(C7CCC(=O)NC7=O)C8=O)CC6)cc5)CC4)cn3c2=O)c1)C1CCC1 (stereo partly drawn) [Compound 28] |  |
| 30 to 300 | 30 to 50 | Cn1cnnc1[C@@H](c1cccc(-n2cc3c(C(F)(F)F)cc(CN4CCC[C@H](OCCOCc5ccc(COCCNc6cccc7c6C(=O)N(C6CCC(=O)NC6=O)C7=O)cc5)CC4)cn3c2=O)c1)C1CCC1 (stereo partly drawn) [Compound 32] |  |
| 1000 to 10000 | < 30 | Cn1cnnc1CC1(c2cccc(-n3cc4c(C(F)(F)F)cc(CN5CCC(OCCNc6cccc7c6C(=O)N(C6CCC(=O)NC6=O)C7=O)CC5)cn4c3=O)c2)COC1 (stereo not drawn) [Compound 36] |  |
| 1000 to 10000 | < 30 | Cn1cnnc1[C@@H](c1cccc(-n2cc3c(C(F)(F)F)cc(CN4CCC(OCCNc5cccc6c5C(=O)N(C5CCC(=O)NC5=O)C6=O)CC4)cn3c2=O)c1)C1CCC1 (stereo partly drawn) [Compound 37] |  |
| 300 to 1000 | 30 to 50 | Cn1cnnc1[C@@H](c1cccc(-n2cc3c(C(F)(F)F)cc(CN4CC[C@H](OCCOCc5ccc(COCCNc6cccc7c6C(=O)N(C6CCC(=O)NC6=O)C7=O)cc5)C4)cn3c2=O)c1)C1CCC1 (stereo partly drawn) [Compound 60] |  |
| 300 to 1000 | 30 to 50 | Cn1cnnc1[C@@H](c1cccc(-n2cc3c(C(F)(F)F)cc(CN4CCN(CCN5CCC(CN6CCN(c7ccc8c(c7)CN([C@@H]7CCC(=O)NC7=O)C8=O)CC6)CC5)CC4)cn3c2=O)c1)C1CCC1 [Compound 63] |  |
| 300 to 1000 | 30 to 50 | CO[C@H]1C[C@](c2cccc(-n3cc4c(C(F)(F)F)cc(CN5CCC(OCCN6CCC(CN7CCN(c8ccc9c(c8)CN([C@@H]8CCC(=O)NC8=O)C9=O)CC7)CC6)CC5)cn4c3=O)c2)(c2nncn2C)C1 [Compound 69] |  |
| 30 to 300 | 50 to 70 | CO[C@H]1C[C@](c2cccc(-n3cc4c(C(F)(F)F)cc(CN5CCC(OCCN6CCC(CN7CCN(c8ccc9c(c8)CN([C@H]8CCC(=O)NC8=O)C9=O)CC7)CC6)CC5)cn4c3=O)c2)(c2nncn2C)C1 [Compound 70] |  |
| 1000 to 10000 | 30 to 50 | CO[C@H]1C[C@@](c2cccc(-n3cc4c(C(F)(F)F)cc(CN5CCC(OCCN6CCC(CN7CCN(c8ccc9c(c8)CN([C@@H]8CCC(=O)NC8=O)C9=O)CC7)CC6)CC5)cn4c3=O)c2)(c2nncn2C)C1 [Compound 73] |  |
| 1000 to 10000 | 50 to 70 | CO[C@H]1C[C@@](c2cccc(-n3cc4c(C(F)(F)F)cc(CN5CCC(OCCN6CCC(CN7CCN(c8ccc9c(c8)CN([C@H]8CCC(=O)NC8=O)C9=O)CC7)CC6)CC5)cn4c3=O)c2)(c2nncn2C)C1 [Compound 74] |  |
| < 30 |  | Cn1cnnc1[C@@H](c1cccc(-n2cc3c(C(F)(F)F)cc(CN4CCC[C@H](OCc5ccc(CN6CCN(c7ccc8c(c7)CN([C@H]7CCC(=O)NC7=O)C8=O)CC6)cc5)C4)cn3c2=O)c1)C1CCC1 [Compound 82] |  |
| 30 to 300 |  | Cn1cnnc1[C@@H](c1cccc(-n2cc3c(C(F)(F)F)cc(CN4CCC[C@@H](OCc5ccc(CN6CCN(c7ccc8c(c7)CN(C7CCC(=O)NC7=O)C8=O)CC6)cc5)C4)cn3c2=O)c1)C1CCC1 (stereo partly drawn) [Compound 95] |  |

The next lines start with the molecule.

| SMILES | DC50 [1] [nM] | Dmax [2] [%] | Dmax (THP-1) [%] |
| --- | --- | --- | --- |
| Cn1cnnc1[C@@H](c1cccc(-n2cc3c(C(F)(F)F)cc(CN4CCC(OCCOCc5ccc(CN6CCN(c7cccc8c7C(=O)N(C7CCC(=O)NC7=O)C8=O)CC6)cc5)CC4)cn3c2=O)c1)C1CCC1 (stereo partly drawn) [Compound 24] | > 10000 | < 30 |  |
| Cn1cnnc1[C@@H](c1cccc(-n2cc3c(C(F)(F)F)cc(CN4CCC(CN5CCC(CN6CCN(c7cc8c(cc7F)C(=O)N(C7CCC(=O)NC7=O)C8=O)CC6)CC5)CC4)cn3c2=O)c1)C1CCC1 (stereo partly drawn) [Compound 29] | > 10000 | < 30 |  |
| Cn1cnnc1[C@@H](c1cccc(-n2cc3c(C(F)(F)F)cc(CN4CCC(C(=O)N5CCC(CN6CCN(c7cc8c(cc7F)C(=O)N(C7CCC(=O)NC7=O)C8=O)CC6)CC5)CC4)cn3c2=O)c1)C1CCC1 (stereo partly drawn) [Compound 30] | > 10000 | < 30 |  |
| Cn1cnnc1[C@@H](c1cccc(-n2cc3c(C(F)(F)F)cc(CN4CCC[C@@H](OCCOCc5ccc(COCCNc6cccc7c6C(=O)N(C6CCC(=O)NC6=O)C7=O)cc5)CC4)cn3c2=O)c1)C1CCC1 (stereo partly drawn) [Compound 31] | 30 to 300 | 50 to 70 |  |
| CN(CCOC1CCN(Cc2cc(C(F)(F)F)c3cn(-c4cccc([C@H](c5nncn5C)C5CCC5)c4)c(=O)n3c2)CC1)C(=O)c1ccc(N2CCN(c3cccc4c3C(=O)N(C3CCC(=O)NC3=O)C4=O)CC2)cc1 (stereo partly drawn) [Compound 33] | > 10000 | < 30 |  |
| CN(CCOC1CCN(Cc2cc(C(F)(F)F)c3cn(-c4cccc([C@H](c5nncn5C)C5CCC5)c4)c(=O)n3c2)CC1)C(=O)c1ccc(N2CCN(c3ccc4c(c3)CN([C@H]3CCC(=O)NC3=O)C4=O)CC2)cc1 [Compound 34] | 30 to 300 |  | > 70 |
| CN(CCOC1CCN(Cc2cc(C(F)(F)F)c3cn(-c4cccc([C@H](c5nncn5C)C5CCC5)c4)c(=O)n3c2)CC1)C(=O)c1ccc(N2CCN(c3ccc4c(c3)CN([C@@H]3CCC(=O)NC3=O)C4=O)CC2)cc1 [Compound 35] | 300 to 1000 | 50 to 70 |  |
| Cn1cnnc1[C@@H](c1cccc(-n2cc3c(C(F)(F)F)cc(CN4CCC(CN5CCC(CN6CCN(c7ccc8c(c7)CN(C7CCC(=O)NC7=O)C8=O)CC6)CC5)CC4)cn3c2=O)c1)C1CCC1 (stereo partly drawn) [Compound 38] | 1000 to 10000 | 50 to 70 |  |
| Cn1cnnc1CC1(c2cccc(-n3cc4c(C(F)(F)F)cc(CN5CCC(N6CCN(c7ccc8c(c7)CN(C7CCC(=O)NC7=O)C8=O)CC6)CC5)cn4c3=O)c2)COC1 (stereo not drawn) [Compound 39] | > 10000 |  | < 30 |
| Cn1cnnc1CC1(c2cccc(-n3cc4c(C(F)(F)F)cc(CN5CCC(CN6CCC(CN7CCN(c8ccc9c(c8)CN(C8CCC(=O)NC8=O)C9=O)CC7)CC6)CC5)cn4c3=O)c2)COC1 (stereo not drawn) [Compound 42] | > 10000 |  | < 30 |
| Cn1cnnc1CC1(c2cccc(-n3cc4c(C(F)(F)F)cc(CN5CCC(C(=O)N6CCC(CN7CCN(c8ccc9c(c8)CN(C8CCC(=O)NC8=O)C9=O)CC7)CC6)CC5)cn4c3=O)c2)COC1 (stereo not drawn) [Compound 43] | > 10000 |  | < 30 |
| Cn1cnnc1[C@@H](c1cccc(-n2cc3c(C(F)(F)F)cc(CN4CCC(C(=O)N5CCC(CN6CCN(c7ccc8c(c7)CN(C7CCC(=O)NC7=O)C8=O)CC6)CC5)CC4)cn3c2=O)c1)C1CCC1 (stereo partly drawn) [Compound 44] | > 10000 | 30 to 50 |  |
| Cn1cnnc1CC1(c2cccc(-n3cc4c(C(F)(F)F)cc(CN5CC[C@@H](OCCOCc6ccc(COCCNc7cccc8c7C(=O)N(C7CCC(=O)NC7=O)C8=O)cc6)C5)cn4c3=O)c2)COC1 (stereo partly drawn) [Compound 45] | 300 to 1000 | 50 to 70 |  |
| Cn1cnnc1CC1(c2cccc(-n3cc4c(C(F)(F)F)cc(CN5CC[C@H](OCCOCc6ccc(COCCNc7cccc8c7C(=O)N(C7CCC(=O)NC7=O)C8=O)cc6)C5)cn4c3=O)c2)COC1 (stereo partly drawn) [Compound 46] | > 10000 | 30 to 50 |  |
| Cn1cnnc1[C@@H](c1cccc(-n2cc3c(C(F)(F)F)cc(CN4CCC[C@H](OCCN5CCC(CN6CCN(c7ccc8c(c7)CN([C@@H]7CCC(=O)NC7=O)C8=O)CC6)CC5)C4)cn3c2=O)c1)C1CCC1 [Compound 55] | 1000 to 10000 | 30 to 50 |  |
| Cn1cnnc1[C@@H](c1cccc(-n2cc3c(C(F)(F)F)cc(CN4CCC[C@H](OCCN5CCC(CN6CCN(c7ccc8c(c7)CN([C@H]7CCC(=O)NC7=O)C8=O)CC6)CC5)C4)cn3c2=O)c1)C1CCC1 [Compound 56] | 30 to 300 | > 70 |  |
| Cn1cnnc1[C@@H](c1cccc(-n2cc3c(C(F)(F)F)cc(CN4CCC(OCCN5CCC(CN6CCN(c7ccc8c(c7)CN([C@@H]7CCC(=O)NC7=O)C8=O)CC6)CC5)CC4)cn3c2=O)c1)C1COC1 [Compound 57] | 1000 to 10000 | 50 to 70 |  |
| Cn1cnnc1[C@@H](c1cccc(-n2cc3c(C(F)(F)F)cc(CN4CCC(OCCN5CCC(CN6CCN(c7ccc8c(c7)CN([C@H]7CCC(=O)NC7=O)C8=O)CC6)CC5)CC4)cn3c2=O)c1)C1COC1 [Compound 58] | 30 to 300 | > 70 |  |
| Cn1cnnc1[C@@H](c1cccc(-n2cc3c(C(F)(F)F)cc(CN4CC[C@@H](OCCOCc5ccc(COCCNc6cccc7c6C(=O)N(C6CCC(=O)NC6=O)C7=O)cc5)C4)cn3c2=O)c1)C1CCC1 (stereo partly drawn) [Compound 59] | 300 to 1000 | 30 to 50 |  |
| Cn1cnnc1CC1(c2cccc(-n3cc4c(C(F)(F)F)cc(CN5CCN(CCN6CCC(CN7CCN(c8ccc9c(c8)CN([C@H]8CCC(=O)NC8=O)C9=O)CC7)CC6)CC5)cn4c3=O)c2)COC1 [Compound 62] | 30 to 300 | > 70 |  |
| Cn1cnnc1[C@@H](c1cccc(N2Cc3c(cc(CN4CCC(OCCN5CCC(CN6CCN(c7ccc8c(c7)CN([C@@H]7CCC(=O)NC7=O)C8=O)CC6)CC5)CC4)cc3C(F)(F)F)C2=O)c1)C1CCC1 [Compound 65] | 300 to 1000 | 50 to 70 |  |
| Cn1cnnc1[C@@H](c1cccc(N2Cc3c(cc(CN4CCC(OCCN5CCC(CN6CCN(c7ccc8c(c7)CN([C@H]7CCC(=O)NC7=O)C8=O)CC6)CC5)CC4)cc3C(F)(F)F)C2=O)c1)C1CCC1 [Compound 66] | 30 to 300 |  | 50 to 70 |
| Cn1cnnc1CC1(c2cccc(N3Cc4c(cc(CN5CCC(OCCN6CCC(CN7CCN(c8ccc9c(c8)CN([C@H]8CCC(=O)NC8=O)C9=O)CC7)CC6)CC5)cc4C(F)(F)F)C3=O)c2)COC1 [Compound 76] | 30 to 300 | 50 to 70 |  |
| Cn1cnnc1CC1(c2cccc(-n3cc4c(C(F)(F)F)cc(CN5CCC[C@@H](OCc6ccc(CN7CCN(c8ccc9c(c8)CN(C8CCC(=O)NC8=O)C9=O)CC7)cc6)C5)cn4c3=O)c2)COC1 (stereo partly drawn) [Compound 96] | 30 to 300 | 30 to 50 |  |
